Data published in patent publication US20230257364A1, “PYRIDAZINONE-BASED COMPOUNDS AS AXL, C-MET, AND MER INHIBITORS AND METHODS OF USE THEREOF” (CMG Pharmaceutical Co., Ltd., priority 2022, published 2023).

Experiments:
Assay type in all cases: biochemical
[1] = target: T1, MER (Homo sapiens, UniProt Q12866); assay: Enzymatic kinase assay (ADP-GLO), MER; conditions: 10 μM ATP, poly (Glu4, Tyr1) substrate, 60 min room temperature, luminescence
T1 sequence (Q12866 21-999): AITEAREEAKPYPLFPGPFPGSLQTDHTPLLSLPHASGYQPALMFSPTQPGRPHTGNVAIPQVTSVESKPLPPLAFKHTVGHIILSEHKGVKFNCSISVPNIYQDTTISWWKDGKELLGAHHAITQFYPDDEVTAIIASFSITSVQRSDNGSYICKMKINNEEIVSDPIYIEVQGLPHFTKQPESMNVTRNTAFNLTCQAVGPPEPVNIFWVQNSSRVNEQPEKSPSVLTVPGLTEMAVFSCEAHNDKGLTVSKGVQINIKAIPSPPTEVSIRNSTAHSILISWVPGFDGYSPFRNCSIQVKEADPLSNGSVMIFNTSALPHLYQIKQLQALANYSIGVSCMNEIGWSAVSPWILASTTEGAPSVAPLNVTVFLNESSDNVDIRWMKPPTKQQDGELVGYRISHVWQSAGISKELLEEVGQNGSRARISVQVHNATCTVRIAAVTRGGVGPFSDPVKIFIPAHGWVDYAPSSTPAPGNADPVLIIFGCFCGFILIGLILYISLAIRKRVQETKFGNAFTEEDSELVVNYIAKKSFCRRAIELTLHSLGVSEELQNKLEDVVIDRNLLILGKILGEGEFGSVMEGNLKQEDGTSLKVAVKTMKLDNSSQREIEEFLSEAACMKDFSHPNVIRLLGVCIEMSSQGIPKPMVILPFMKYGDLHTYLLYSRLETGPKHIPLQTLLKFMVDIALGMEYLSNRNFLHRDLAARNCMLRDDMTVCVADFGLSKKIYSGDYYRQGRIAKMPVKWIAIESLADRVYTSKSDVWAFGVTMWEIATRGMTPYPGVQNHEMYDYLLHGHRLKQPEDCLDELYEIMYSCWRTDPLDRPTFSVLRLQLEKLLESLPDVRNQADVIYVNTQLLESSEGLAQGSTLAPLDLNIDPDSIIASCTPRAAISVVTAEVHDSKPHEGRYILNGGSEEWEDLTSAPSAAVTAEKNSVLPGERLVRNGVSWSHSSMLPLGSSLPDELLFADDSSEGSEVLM
Method: (§1) This example illustrates an enzymatic assay to determine the inhibitory activity of exemplary compounds of Formula (I) in an aspect of the invention.
(§2) All the kinase reactions were performed in 5 μL using tyrosine kinase buffer with 0.2 μg/μL poly (Glu4, Tyr1) substrate, 10 μM ATP, serial dilution of the inhibitor, and incubated at room temperature for 60 min. After the indicated incubation times, 5 μL ADP-GLO™ reagent (Promega, Madison, Wis.) was added to the reactions and the plate was incubated at room temperature for 40 min. Then, 10 μL of kinase detection reagent was added and after an incubation time of 40 min, luminescence was recorded and IC50 values were determined (Table 1). All 384-well assay plates were read using a GLOMAX™ Discover Microplate Luminometer from Promega (Madison, Wis.). To plot, analyze the data and calculate all kinase reaction biochemical values, both Microsoft Excel and Prism from GraphPad 7 Software (La Jolla, Calif.) were used.

[2] = target: C-MET (Homo sapiens, UniProt P08581); assay: Enzymatic kinase assay (ADP-GLO), C-MET; conditions: 10 μM ATP, poly (Glu4, Tyr1) substrate, 60 min room temperature, luminescence; read-out: Enzymatic assay IC50 (nM) C-MET
Chain of C-MET (P08581 25-1390): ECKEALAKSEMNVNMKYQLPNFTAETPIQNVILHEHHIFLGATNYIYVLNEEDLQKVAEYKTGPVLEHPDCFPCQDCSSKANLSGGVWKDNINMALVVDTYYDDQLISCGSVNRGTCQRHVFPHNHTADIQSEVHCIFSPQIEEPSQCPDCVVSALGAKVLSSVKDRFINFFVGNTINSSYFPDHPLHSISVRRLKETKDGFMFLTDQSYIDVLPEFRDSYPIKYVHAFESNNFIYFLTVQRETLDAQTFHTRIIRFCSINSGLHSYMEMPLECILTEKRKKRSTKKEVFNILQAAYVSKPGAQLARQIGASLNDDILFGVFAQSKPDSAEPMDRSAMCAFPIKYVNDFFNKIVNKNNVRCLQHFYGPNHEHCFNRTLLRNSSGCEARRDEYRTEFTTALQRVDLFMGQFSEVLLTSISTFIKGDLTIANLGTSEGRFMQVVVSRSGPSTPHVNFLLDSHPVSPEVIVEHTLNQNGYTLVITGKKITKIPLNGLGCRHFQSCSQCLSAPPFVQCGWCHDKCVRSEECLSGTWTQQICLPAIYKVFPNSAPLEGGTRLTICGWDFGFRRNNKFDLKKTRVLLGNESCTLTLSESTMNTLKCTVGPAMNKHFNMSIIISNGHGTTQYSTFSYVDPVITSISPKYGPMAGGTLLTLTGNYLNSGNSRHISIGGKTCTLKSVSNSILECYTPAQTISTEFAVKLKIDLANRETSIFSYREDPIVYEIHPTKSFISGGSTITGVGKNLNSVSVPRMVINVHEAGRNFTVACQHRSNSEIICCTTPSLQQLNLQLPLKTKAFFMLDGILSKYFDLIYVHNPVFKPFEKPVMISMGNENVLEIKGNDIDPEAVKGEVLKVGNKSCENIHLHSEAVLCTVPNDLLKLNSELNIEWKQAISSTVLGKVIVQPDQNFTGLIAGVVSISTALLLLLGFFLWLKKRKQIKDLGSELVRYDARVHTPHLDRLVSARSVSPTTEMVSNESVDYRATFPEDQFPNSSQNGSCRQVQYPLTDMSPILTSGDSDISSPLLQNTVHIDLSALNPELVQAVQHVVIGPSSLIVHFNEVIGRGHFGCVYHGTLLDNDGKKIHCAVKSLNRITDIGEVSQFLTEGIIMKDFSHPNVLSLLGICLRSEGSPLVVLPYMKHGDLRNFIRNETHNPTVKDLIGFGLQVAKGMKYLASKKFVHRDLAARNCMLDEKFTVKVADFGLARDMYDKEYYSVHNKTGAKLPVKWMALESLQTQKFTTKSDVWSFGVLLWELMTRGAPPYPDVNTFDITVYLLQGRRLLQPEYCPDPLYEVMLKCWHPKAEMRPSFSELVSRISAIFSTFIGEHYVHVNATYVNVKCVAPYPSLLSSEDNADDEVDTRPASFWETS
Method: as §1
as §2, with “Then, 10 μL of kinase detection reagent was added and after an incubation time of 40 min, luminescence was recorded and IC50 values were determined (Table 1).” left out

[3] = target: T2, AXL (Homo sapiens, UniProt P30530); assay: Enzymatic kinase assay (ADP-GLO), AXL; conditions: 10 μM ATP, poly (Glu4, Tyr1) substrate, 60 min room temperature, luminescence
T2 sequence (P30530 26-894): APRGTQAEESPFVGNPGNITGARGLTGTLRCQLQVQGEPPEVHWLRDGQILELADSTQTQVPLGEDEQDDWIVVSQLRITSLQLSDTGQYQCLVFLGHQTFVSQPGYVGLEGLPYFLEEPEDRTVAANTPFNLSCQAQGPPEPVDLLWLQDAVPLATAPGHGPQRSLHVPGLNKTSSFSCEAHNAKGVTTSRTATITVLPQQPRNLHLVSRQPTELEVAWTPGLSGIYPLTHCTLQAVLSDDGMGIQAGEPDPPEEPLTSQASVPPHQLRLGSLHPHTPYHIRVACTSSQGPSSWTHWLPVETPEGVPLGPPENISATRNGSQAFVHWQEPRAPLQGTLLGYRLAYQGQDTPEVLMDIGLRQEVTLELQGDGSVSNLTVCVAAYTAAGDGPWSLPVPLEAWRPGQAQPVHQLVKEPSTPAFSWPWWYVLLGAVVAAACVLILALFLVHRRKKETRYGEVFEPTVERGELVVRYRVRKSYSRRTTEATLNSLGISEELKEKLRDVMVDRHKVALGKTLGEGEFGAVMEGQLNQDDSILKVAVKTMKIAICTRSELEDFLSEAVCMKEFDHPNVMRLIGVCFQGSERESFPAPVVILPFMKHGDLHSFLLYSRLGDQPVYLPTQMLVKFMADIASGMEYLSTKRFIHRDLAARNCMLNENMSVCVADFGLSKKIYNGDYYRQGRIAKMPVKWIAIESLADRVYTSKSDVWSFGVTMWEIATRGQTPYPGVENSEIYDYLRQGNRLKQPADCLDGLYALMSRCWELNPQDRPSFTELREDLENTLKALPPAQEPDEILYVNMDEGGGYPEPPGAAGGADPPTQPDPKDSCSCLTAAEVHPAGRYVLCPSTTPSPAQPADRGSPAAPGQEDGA
Method: as §1, §2

SMILES | IC50 [1] | IC50 [2] | IC50 [3]
Nc1nccc(Oc2ccc(NC(=O)c3ccnn(-c4ccc(F)cc4)c3=O)cc2F)c1Cl [Example 1, N-(4-(2-amino-3-chloropyridin-4-yloxy)-3-fluorophenyl)-2-(4-fluorophenyl)-3-oxo-2,3-dihydropyridazine-4-carboxamide] | < 1000 nM | < 1000 nM | < 1000 nM
Nc1nccc(Oc2ccc(NC(=O)c3ccnn(-c4ccc(F)cc4)c3=O)cc2F)c1C#CC(=O)N1CCOCC1 [Example 2, N-(4-(2-amino-3-(3-morpholino-3-oxoprop-1-ynyl)pyridin-4-yloxy)-3-fluorophenyl)-2-(4-fluorophenyl)-3-oxo-2,3-dihydropyridazine-4-carboxamide] | < 10 nM | < 1000 nM | < 100 nM
Nc1nccc(Oc2ccc(NC(=O)c3ccnn(-c4ccc(F)cc4)c3=O)cc2F)c1C#CCN1CCOCC1 [Example 3, N-(4-(2-amino-3-(morpholinoprop-1-ynyl)pyridine-4-yloxy)-3-fluorophenyl)-2-(4-fluorophenyl)-3-oxo-2,3-dihydropyridazine-4-carboxamide] | < 1000 nM | < 1000 nM | < 1000 nM
Nc1nccc(Oc2ccc(NC(=O)c3ccnn(-c4ccc(F)cc4)c3=O)cc2F)c1/C=C/C(=O)N1CCOCC1 [Example 4, (E)-N-(4-(2-amino-3-(3-morpholino-3-oxoprop-1-enyl)pyridine-4-yloxy)-3-fluorophenyl)-2-(4-fluorophenyl)-3-oxo-2,3-dihydropyridazine-4-carboxamide] | < 100 nM | < 100 nM | < 1000 nM
N#Cc1c(Oc2ccc(NC(=O)c3ccnn(-c4ccc(F)cc4)c3=O)cc2F)ccnc1N [Example 5] | < 1000 nM | < 10 nM | < 100 nM
Nc1nccc(Oc2ccc(NC(=O)c3ccnn(-c4ccc(F)cc4)c3=O)cc2F)c1C#CCN1CCNCC1 [Example 6, N-(4-(2-amino-3-(3-(piperazin-1-yl)prop-1-ynyl)pyridin-4-yloxy)-3-fluorophenyl)-2-(4-fluorophenyl)-3-oxo-2,3-dihydropyridazine-4-carboxamide] | < 1000 nM | < 1000 nM | < 1000 nM
Nc1nccc(Oc2ccc(NC(=O)c3ccnn(-c4ccc(F)cc4)c3=O)cc2F)c1/C=C/C(=O)N1CCNCC1 [Example 7, (E)-N-(4-(2-amino-3-(3-oxo-3-(piperazin-1-yl)prop-1-enyl)pyridin-4-yloxy)-3-fluorophenyl)-2-(4-fluorophenyl)-3-oxo-2,3-dihydropyridazine-4-carboxamide] | < 1000 nM | < 1000 nM | < 1000 nM
Nc1nccc(Oc2ccc(NC(=O)c3ccnn(-c4ccc(F)cc4)c3=O)cc2F)c1C#CCCN1CCOCC1 [Example 8, N-(4-(2-amino-3-(4-morpholinobut-1-ynyl)pyridin-4-yloxy)-3-fluorophenyl)-2-(4-fluorophenyl)-3-oxo-2,3-dihydropyridazine-4-carboxamide] | < 1000 nM | < 1000 nM | < 100 nM
Nc1nccc(Oc2ccc(NC(=O)c3ccnn(-c4ccc(F)cc4)c3=O)cc2F)c1C#CC(=O)N1CCC(O)CC1 [Example 9, N-(4-(2-amino-3-(3-(4-hydroxypiperidin-1-yl)-3-oxoprop-1-ynyl)pyridin-4-yloxy)-3-fluorophenyl)-2-(4-fluorophenyl)-3-oxo-2,3-dihydropyridazine-4-carboxamide] | < 100 nM | < 100 nM | < 10 nM
COC1CCN(C(=O)C#Cc2c(Oc3ccc(NC(=O)c4ccnn(-c5ccc(F)cc5)c4=O)cc3F)ccnc2N)CC1 [Example 10, N-(4-(2-amino-3-(3-(4-methoxypiperidin-1-yl)-3-oxoprop-1-ynyl)pyridin-4-yloxy)-3-fluorophenyl)-2-(4-fluorophenyl)-3-oxo-2,3-dihydropyridazine-4-carboxamide] | < 1000 nM | < 1000 nM | < 100 nM
COCCONC(=O)C#Cc1c(Oc2ccc(NC(=O)c3ccnn(-c4ccc(F)cc4)c3=O)cc2F)ccnc1N [Example 11, N-(4-(2-amino-3-(3-(2-methoxyethoxyamino)-3-oxoprop-1-ynyl)pyridin-4-yloxy)-3-fluorophenyl)-2-(4-fluorophenyl)-3-oxo-2,3-dihydropyridazine-4-carboxamide] | < 1000 nM | < 10 nM | < 100 nM
COCCON(C)C(=O)C#Cc1c(Oc2ccc(NC(=O)c3ccnn(-c4ccc(F)cc4)c3=O)cc2F)ccnc1N [Example 12, N-(4-(2-amino-3-(3-((2-methoxyethoxy)(methyl)amino)-3-oxoprop-1-ynyl)pyridin-4-yloxy)-3-fluorophenyl)-2-(4-fluorophenyl)-3-oxo-2,3-dihydropyridazine-4-carboxamide] | < 100 nM | < 100 nM | < 100 nM
Nc1nccc(Oc2ccc(NC(=O)c3ccnn(-c4ccc(F)cc4)c3=O)cc2F)c1C#CC(=O)N1CCNCC1 [Example 13, N-(4-(2-amino-3-(3-oxo-3-(piperazin-1-yl)prop-1-ynyl)pyridin-4-yloxy)-3-fluorophenyl)-2-(4-fluorophenyl)-3-oxo-2,3-dihydropyridazine-4-carboxamide] | < 100 nM | < 100 nM | < 100 nM
COCCN1CCN(C(=O)C#Cc2c(Oc3ccc(NC(=O)c4ccnn(-c5ccc(F)cc5)c4=O)cc3F)ccnc2N)CC1 [Example 14, N-(4-(2-amino-3-(3-(4-(2-methoxyethyl)piperazin-1-yl)-3-oxoprop-1-ynyl)pyridin-4-yloxy)-3-fluorophenyl)-2-(4-fluorophenyl)-3-oxo-2,3-dihydropyridazine-4-carboxamide] | < 10 nM | < 10 nM | < 10 nM
Nc1nccc(Oc2ccc(NC(=O)c3cccn(-c4ccc(F)cc4)c3=O)cc2F)c1C#CC(=O)N1CCNCC1 [Example 15, N-(4-(2-amino-3-(3-oxo-3-(piperazin-1-yl)prop-1-ynyl)pyridin-4-yloxy)-3-fluorophenyl)-1-(4-fluorophenyl)-2-oxo-1,2-dihydropyridine-3-carboxamide] | < 100 nM | < 100 nM | < 100 nM
